Common to all, as to format: in vivo
The subject of experiment [1] is diet induced obesity (DIO) mouse. Description: Anti-obesity effect (body weight change) in diet induced obesity (DIO) mouse. The conditions noted are these: for Anti-obesity effect (%): % body weight change by Equation 1; for Anti-obesity activity compared with other isomer/racemate: result in words. The protocol:
Specifically, a 5- to 6-week-old female C57BL/6J mouse (Jackson Lab., USA) were purchased and fed with only high-fat fodder for at least 11 weeks to produce a diet induced obesity (DIO) mouse. Samples were exactly taken from a control and the racemic compound, the R-enantiomer (Compound 2a) and the S-enantiomer (Compound 2b) in Example 1 according to the administration dose (0, 20, and 50 mg/kg) and put into Falcon tubes, 3 ml of a 0.5% aqueous methyl cellulose solution was added thereto, and the resulting mixture was gently mixed by means of a vortex mixer. Thereafter, the mixture was homogenized by using a homogenizer (30,000 rpm, Ultra-Turrax® T10 Basic, IKA) for 3 minutes while 1.5 ml of a 0.5% aqueous methyl cellulose solution was added thereto. The sample thus prepared was administered through the oral gavage once daily for 6 weeks by using a disposable plastic syringe. The body weight was measured once a week while the DIO mouse was bred in this manner.
Based on the data thus measured, the anti-obesity effect was calculated according to the following Equation 1. Anti-obesity effect (%)={(Body weight after compound is administered)−(Body weight before compound is administered)}/(Body weight before compound is administered))×100 [Equation 1]
For the anti-obesity efficacy of the R-enantiomer (Compound 3a) and the S-enantiomer (Compound 3b) of the optically active pyranochromenylphenol compound prepared in Example 2, an experiment was performed in the same manner as in Experimental Example 1.
Based on the data thus measured, the anti-obesity effect was calculated according to Equation 1.

Experiment [2] has as its system C57BLKS/J-db/db mice. Put plainly: Change in glycated hemoglobin of db/db mouse. The conditions noted are these: average; for Glycated hemoglobin (HbAlc, %), before administration: 300 mg/kg group, before administration (baseline); for Glycated hemoglobin (HbAlc, %), 29th day after administration / Glycated hemoglobin (HbAlc, %), 43rd day after administration: 300 mg/kg. As to the method: (§1) Specifically, 5-week-old male C57BLKS/J-db/db mice (Central Lab. Animal Inc., Korea) were purchased and acclimatized for 2 weeks, and then used in the present experiment. The R-enantiomer (Compound 3a) and the S-enantiomer (Compound 3b) prepared in Example 2 were weighed (CP423S, Sartorius, Germany) according to the administration dose and put into 50 ml tubes, an excipient (10% LM 2125 CS MCT solution) stored at room temperature was added thereto, and then the resulting mixture was stirred by means of a vortex mixer so as to dissolve the excipient. Thereafter, the solution was ultrasonically treated for about 10 minutes, and a stock solution was prepared by formulating the solution at a predetermined concentration. A 0.5% aqueous MC solution as an excipient was added to the prepared stock solution, the resulting mixture was gently stirred by means of a vortex mixer, homogenized and prepared by means of a homogenizer (PT-1600E, Kinematica, Switzerland) at 30,000 rpm for 3 minutes, and then a solution was prepared at a final predetermined concentration by performing ultrasonic wave treatment for 30 minutes. The sample thus prepared was administered through the oral gavage once daily for 6 weeks by using a disposable plastic syringe with a zonde for oral administration attached.
By using the same method as in Experimental Example 3, a racemic compound of Compound 1, Compound 1a being an R-enantiomer, a racemic compound of Compound 3 prepared in Example 2 and Compound 3a being an R-enantiomer were administered to the C57BLKS/J-db/db mice, and then the anti-diabetes effects were confirmed.
The following Table 5 is a result of measuring a change in glycated hemoglobin of the db/db mouse according to the administration of the normal group, the negative control the racemic compound of Compound 1, Compound 1a being the R-enantiomer, the racemic Compound of Compound 3 prepared in Example 2 and Compound 3a being the R-enantiomer.

The subject of experiment [3] is C57BLKS/J-db/db mice. Description: Glucose tolerance test in db/db mice. The conditions noted are these: db/db mouse; for Blood sugar (mg/dl), 15 min after administration of glucose / Blood sugar (mg/dl), 30 min after administration of glucose / Blood sugar (mg/dl), 60 min after administration of glucose / Blood sugar (mg/dl), 120 min after administration of glucose / Blood sugar (mg/dl), 180 min after administration of glucose / Blood sugar (mg/dl), 240 min after administration of glucose / Blood sugar (mg/dl), 0 min after administration of glucose / AUC of blood sugar: 48th day, average; for Blood sugar (mg/dl), 15 min after administration of glucose / Blood sugar (mg/dl), 30 min after administration of glucose / Blood sugar (mg/dl), 60 min after administration of glucose / Blood sugar (mg/dl), 120 min after administration of glucose / Blood sugar (mg/dl), 180 min after administration of glucose / Blood sugar (mg/dl), 240 min after administration of glucose / Blood sugar (mg/dl), 0 min after administration of glucose: glucose 2 g/kg oral; for Blood sugar (mg/dl), 0 min after administration of glucose: before glucose; for AUC of blood sugar: glucose tolerance test 0-240 min, Phoenix WinNonlin. As to the method:
as §1
While the C57BLKS/J-db/db mouse was bred, the mouse was fasted for 14 to 16 hours on the 48th day after administration, and then a glucose tolerance test was performed by orally administering glucose (Lot No: SLBM9269V, Sigma-Aldrich. USA) at a dose of 2 g/kg to the mice. Specifically, blood was collected from the caudal vein seven times in total including before the administration of glucose, at 15 minutes after the administration of glucose, at 30 minutes after the administration of glucose, at 60 minutes after the administration of glucose, at 120 minutes after the administration of glucose, at 180 minutes after the administration of glucose, and at 240 minutes after the administration of glucose. Thereafter, blood sugar was measured by using two blood sugar meters (AGM-4000, Allmedicus Inc., Korea), and then an average blood sugar was calculated by using each blood sugar measurement value. The area under the blood concentration-time curve (AUC) for the blood sugar value at each measurement time point was calculated by using a Phoenix WinNonlin program.

The mark [4] stands for this setting: 50 mg/kg oral gavage once daily for 6 weeks.
Setting [5] is: 200 mg/kg oral gavage once daily for 6 weeks.

With `CCOc1ccc(C2COc3c(ccc4c3CCC(C)(C)O4)C2)c(O)c1` (racemic) [Compound 2, 3-(2-hydroxy-4-ethoxyphenyl)-8,8-dimethyl-2,3,4,8,9,10-hexahydropyrano[2,3-f]chromene], the “Anti-obesity effect (%)” value in experiment [1] (20 mg/kg oral gavage once daily for 6 weeks) came to 16.11%; in experiment [1] (setting [4]), 2.29%.
For the molecule `CCCOc1ccc(C2COc3c(ccc4c3CCC(C)(C)O4)C2)c(O)c1` (racemic) [Compound 3, 3-(2-hydroxy-4-propoxyphenyl)-8,8-dimethyl-2,3,4,8,9,10-hexahydropyrano[2,3-f]chromene], in the experiment with C57BLKS/J-db/db mice [2], the “Glycated hemoglobin (HbAlc, %), before administration” value came to 4.7%; the “Glycated hemoglobin (HbAlc, %), 29th day after administration” value is 6.7%; the “Glycated hemoglobin (HbAlc, %), 43rd day after administration” value stood at 6.2%.
In the case of `CCOc1ccc([C@@H]2COc3c(ccc4c3CCC(C)(C)O4)C2)c(O)c1` [Compound 2a, (R)-3-(2-hydroxy-4-ethoxyphenyl)-8,8-dimethyl-2,3,4,8,9,10-hexahydropyrano[2,3-f]chromene], the “Anti-obesity effect (%)” value in experiment [1] (setting [4]) is 7.58%.
For the molecule `CCOc1ccc([C@H]2COc3c(ccc4c3CCC(C)(C)O4)C2)c(O)c1` [Compound 2b, (S)-3-(2-hydroxy-4-ethoxyphenyl)-8,8-dimethyl-2,3,4,8,9,10-hexahydropyrano[2,3-f]chromene], the “Anti-obesity effect (%)” value in experiment [1] (setting [4]) was −10.99%. Further, in experiment [1], the “Anti-obesity activity compared with other isomer/racemate” value was “better effect of suppressing an increase in body weight than the racemic compound and Compound 2a”.
`CCCOc1ccc([C@@H]2COc3c(ccc4c3CCC(C)(C)O4)C2)c(O)c1` [Compound 3a, (R)-3-(2-hydroxy-4-propoxyphenyl)-8,8-dimethyl-2,3,4,8,9,10-hexahydropyrano[2,3-f]chromene]: the “Anti-obesity effect (%)” value in experiment [1] (setting [5]) is listed as −8.1%. In the experiment with C57BLKS/J-db/db mice [3] (100 mg/kg oral once daily), the “Blood sugar (mg/dl), 15 min after administration of glucose” value (“Blood sugar (mg/dl), 15 min” for short) worked out at 473 mg/dL; the “Blood sugar (mg/dl), 30 min after administration of glucose” value (shortened to “Blood sugar (mg/dl), 30 min”) stood at 527 mg/dL; the “Blood sugar (mg/dl), 60 min after administration of glucose” value (“Blood sugar (mg/dl), 60 min” below) stood at 541 mg/dL; the “Blood sugar (mg/dl), 120 min after administration of glucose” value (from here on “Blood sugar (mg/dl), 120 min”) was determined as 200 mg/dL. Also, in the experiment on C57BLKS/J-db/db mice [3] (100 mg/kg oral once daily), the “Blood sugar (mg/dl), 180 min after administration of glucose” value (“Blood sugar (mg/dl), 180 min” below) was 176 mg/dL; the “Blood sugar (mg/dl), 240 min after administration of glucose” value (shortened to “Blood sugar (mg/dl), 240 min”) was 184 mg/dL; the “Blood sugar (mg/dl), 0 min after administration of glucose” value (“Blood sugar (mg/dl), 0 min” for short) came to 193 mg/dL; the “AUC of blood sugar” value worked out at 526 mg/dL/min. In addition, in the experiment on C57BLKS/J-db/db mice [3] (150 mg/kg oral once daily), the “Blood sugar (mg/dl), 15 min” value was 440 mg/dL; the “Blood sugar (mg/dl), 30 min” value came to 469 mg/dL; the “Blood sugar (mg/dl), 60 min” value was determined as 460 mg/dL; the “Blood sugar (mg/dl), 120 min” value was determined as 234 mg/dL. Moreover, in the experiment on C57BLKS/J-db/db mice [3] (150 mg/kg oral once daily), the “Blood sugar (mg/dl), 180 min” value turned out to be 153 mg/dL; the “Blood sugar (mg/dl), 240 min” value came to 163 mg/dL; the “Blood sugar (mg/dl), 0 min” value was found to be 175 mg/dL; the “AUC of blood sugar” value was determined as 481 mg/dL/min. For the same molecule, in the experiment on C57BLKS/J-db/db mice [3] (200 mg/kg oral once daily), the “Blood sugar (mg/dl), 15 min” value came out at 488 mg/dL; the “Blood sugar (mg/dl), 30 min” value worked out at 507 mg/dL; the “Blood sugar (mg/dl), 60 min” value was found to be 437 mg/dL; the “Blood sugar (mg/dl), 120 min” value came out at 223 mg/dL. Also, in the experiment on C57BLKS/J-db/db mice [3] (200 mg/kg oral once daily), the “Blood sugar (mg/dl), 180 min” value amounted to 183 mg/dL; the “Blood sugar (mg/dl), 240 min” value amounted to 174 mg/dL; the “Blood sugar (mg/dl), 0 min” value amounted to 159 mg/dL; the “AUC of blood sugar” value was found to be 501 mg/dL/min. Moreover, the “Adjustment of blood sugar in glucose tolerance test, compared with other enantiomer” value with C57BLKS/J-db/db mice [3] (result in words) was “adjusted blood sugar well as compared to the S-enantiomer (Compound 3b)”. In the experiment with C57BLKS/J-db/db mice [2], the “Glycated hemoglobin (HbAlc, %), before administration” value stood at 4.7%; the “Glycated hemoglobin (HbAlc, %), 29th day after administration” value is recorded as 7.1%; the “Glycated hemoglobin (HbAlc, %), 43rd day after administration” value was 5.3%.
For the molecule `CCCOc1ccc([C@H]2COc3c(ccc4c3CCC(C)(C)O4)C2)c(O)c1` [Compound 3b, (S)-3-(2-hydroxy-4-propoxyphenyl)-8,8-dimethyl-2,3,4,8,9,10-hexahydropyrano[2,3-f]chromene], in experiment [1] (setting [5]), the “Anti-obesity effect (%)” value is −19.5%. Also, in experiment [1] (6 weeks, FIG. 4, result in words), the “Body weight of the mouse after administration for 6 weeks” value is given as “close to the body weight of the normal mouse”. The “Anti-obesity activity compared with other isomer/racemate” value in experiment [1] is on record as “better anti-obesity activity than Compound 3a”. Moreover, in the experiment with C57BLKS/J-db/db mice [3] (100 mg/kg oral once daily), the “Blood sugar (mg/dl), 15 min” value came to 595 mg/dL; the “Blood sugar (mg/dl), 30 min” value came out at 616 mg/dL; the “Blood sugar (mg/dl), 60 min” value was determined as 628 mg/dL; the “Blood sugar (mg/dl), 120 min” value was 472 mg/dL. In the experiment with C57BLKS/J-db/db mice [3] (100 mg/kg oral once daily), the “Blood sugar (mg/dl), 180 min” value turned out to be 422 mg/dL; the “Blood sugar (mg/dl), 240 min” value was found to be 397 mg/dL; the “Blood sugar (mg/dl), 0 min” value amounted to 392 mg/dL; the “AUC of blood sugar” value came out at 782 mg/dL/min.

(Values after patent publication US11332475B2, “Optically active pyranochromenyl phenol derivative and pharmaceutical composition comprising same” (GLACEUM, INC., priority 2016, dated 2022).)
